# Measurements from patent US20230181614A1, “ADMINISTRATION OF CITICOLINE TO IMPROVE COGNITIVE PERFORMANCE, ATTENTIONAL PERFORMANCE, AND MOTOR FUNCTION” (KYOWA HAKKO BIO CO., LTD., priority 2014, published 2023).
# Columns and labels:
# [1] = test system: Healthy subjects, ages 13-18; assay: Finger Tap Test (motor speed and control); type: in vivo, human; conditions: for V3-V1 Finger Tap Test Mean Dominant Hand, Mean / V3-V1 Finger Tap Test Mean Non-Dominant Hand, Mean: Visit difference score; for Finger Tap Test Mean Dominant Hand V3, Mean / Finger Tap Test Mean Non-Dominant Hand V3, Mean: Visit 3; for Finger Tap Test Mean Dominant Hand, Mean / Finger Tap Test Mean Non-Dominant Hand, Mean: 250 mg/day
# Protocol: The citicoline-treated group (N=51) were administered 250 mg/day (N=24) or 500 mg/day (N=27). Three finger tap tests were administered over a period of 28 days to measure motor speed and control. Results are expressed as mean ± SD. Statistical analysis was performed using Student’s t test. The p<0.05 was considered statistically significant. Study participants were screened by telephone prior to study enrollment. Healthy subjects, ages 13-18, with no significant medical conditions and no history of co-morbid psychiatric disorder, current Axis I or II diagnosis, or previous participation in a pharmacotherapeutic trial, were selected. Use of any psychotropic medication or any previous head injury resulting in loss of consciousness for 5 or more minutes were used as exclusion criteria. While no participant met criteria for a neuropsychiatric disorder at enrollment, clinical assessments were still completed throughout the study to evaluate changes in mood state. In addition, self-reports of sleep habits, lifestyle, and exercise routines were also administered at baseline as well as at each study visit to assess changes in health habits during study participation. Following the completion of Visit 1 assessment, participants were given their 28-day supply of citicoline (250 mg or 500 mg) or placebo, which was randomly assigned. They were instructed to take one capsule a day every day for the next 28 days. Visit 2 occurred fourteen days after Visit 1. At Visit 2, the remaining study pills were counted and participant dosage calendars were checked to ensure compliance with the protocol. Additional neuropsychological measures and clinical assessments were administered during this visit. Participants returned for Visit 3 fourteen days later, on the 28th day of their study participation. The pill bottle and the dosage calendar were collected from each participant. Urine and blood were again obtained. Participants also participated in similar clinical and neuropsychological testing and clinical measures that were given during visit 1. The finger tap test is used to measure motor speed and control. It is a common assessment measure administered by neuropsychologists to detect cognitive impairment. During the finger tap test, the participant is instructed to use his/her index finger to press a lever attached to a mechanical counter as many times as s/he can within the designated time period. The participant is instructed to move only their index finger, not the entire hand. The same process is completed using the index finger of the dominant and non-dominant hand. The finger tap test was administered at each of the three visits.
# [2] = test system: Healthy subjects, ages 13-18; assay: Ruff 2 & 7 test (visual attention); type: in vivo, human; conditions: for Ruff 2 & 7 Accuracy Difference Score V1 (Mean) / Ruff 2 & 7 Speed Difference Score V1 (Mean) / Ruff 2 & 7 Total Accuracy T Score V1 (Mean) / Ruff 2 & 7 Total Difference Score V1 (Mean) / Ruff 2 & 7 Total Speed T Score V1 (Mean): Visit 1; for Ruff 2 & 7 Accuracy Difference Score V3 (Mean) / Ruff 2 & 7 Speed Difference Score V3 (Mean) / Ruff 2 & 7 Total Accuracy T Score V3 (Mean) / Ruff 2 & 7 Total Difference Score V3 (Mean) / Ruff 2 & 7 Total Speed T Score V3 (Mean): Visit 3
# Description: Study participants were screened by telephone prior to study enrollment. Healthy subjects, ages 13-18, with no significant medical conditions and no history of co-morbid psychiatric disorder, current Axis I or II diagnosis, or previous participation in a pharmacotherapeutic trial, were selected. Use of any psychotropic medication or any previous head injury resulting in loss of consciousness for 5 or more minutes were used as exclusion criteria. While no participant met criteria for a neuropsychiatric disorder at enrollment, clinical assessments were still completed throughout the study to evaluate changes in mood state. In addition, self-reports of sleep habits, lifestyle, and exercise routines were also administered at baseline as well as at each study visit to assess changes in health habits during study participation. Following the completion of Visit 1 assessment, participants were given their 28-day supply of citicoline (250 mg or 500 mg) or placebo, which was randomly assigned. They were instructed to take one capsule a day every day for the next 28 days. Visit 2 occurred fourteen days after Visit 1. At Visit 2, the remaining study pills were counted and participant dosage calendars were checked to ensure compliance with the protocol. Additional neuropsychological measures and clinical assessments were administered during this visit. Participants returned for Visit 3 fourteen days later, on the 28th day of their study participation. The pill bottle and the dosage calendar were collected from each participant. Urine and blood were again obtained. Participants also participated in similar clinical and neuropsychological testing and clinical measures that were given during visit 1. The Ruff 2 & 7 measures two aspects of visual attention: sustained attention and selective attention. There are a series of 20 trials involving visual searching in which the respondent detects and marks through all given stimuli the digits “2” and “7”. In the 10 Automatic Detection trials, the target digits are embedded among alphabetical letters that serve as distractors. In the 10 Controlled Search trials, the target digits are embedded among other numbers that serve as distractors. Correct hits and errors are counted for each trial and serve as the basis for scoring the test. Accuracy scores evaluate the number of targets identified in relation to the number of possible targets. The Ruff 2 & 7 was administered at all three visits.
# [3] = 250 mg/day group, visit difference score V3-V1
# [4] = 500 mg/day group, visit difference score V3-V1
compound,measurement,setting,value
"C[N+](C)(C)CCOP(=O)(O)OP(=O)([O-])OC[C@H]1O[C@@H](n2ccc(N)nc2=O)[C@H](O)[C@@H]1O [citicoline, Cytidine 5′-diphosphocholine]","V3-V1 Finger Tap Test Mean Dominant Hand, Mean",[1]; 250 mg/day group,4.87
same,"V3-V1 Finger Tap Test Mean Non-Dominant Hand, Mean",[1]; 250 mg/day group,2.49
same,"Finger Tap Test Mean Dominant Hand V3, Mean",[1]; 250 mg/day group,51.59
same,"Finger Tap Test Mean Non-Dominant Hand V3, Mean",[1]; 250 mg/day group,47.01
same,"Finger Tap Test Mean Dominant Hand, Mean",[1]; V1 (baseline),46.72
same,"Finger Tap Test Mean Non-Dominant Hand, Mean",[1]; V1 (baseline),44.52
same,"Finger Tap Test Mean Dominant Hand, Mean",[1]; V3 (day 28),51.59
same,"Finger Tap Test Mean Non-Dominant Hand, Mean",[1]; V3 (day 28),47.01
same,"Finger Tap Test Mean Dominant Hand V1, Mean","[1]; 500 mg/day group, Visit 1",49.44
same,"Finger Tap Test Mean Non-Dominant Hand V1, Mean","[1]; 500 mg/day group, Visit 1",44.89
same,"V3-V1 Finger Tap Test Mean Dominant Hand, Mean",[1]; 500 mg/day group,2.61
same,"V3-V1 Finger Tap Test Mean Non-Dominant Hand, Mean",[1]; 500 mg/day group,2.21
same,"Finger Tap Test Mean Dominant Hand V3, Mean",[1]; 500 mg/day group,52.05
same,"Finger Tap Test Mean Non-Dominant Hand V3, Mean",[1]; 500 mg/day group,47.10
same,Ruff 2 & 7 Accuracy Difference Score V1 (Mean),[2]; 250 mg/day group,0.02
same,Ruff 2 & 7 Speed Difference Score V1 (Mean),[2]; 250 mg/day group,0.01
same,Ruff 2 & 7 Total Accuracy T Score V1 (Mean),[2]; 250 mg/day group,47.41
same,Ruff 2 & 7 Total Difference Score V1 (Mean),[2]; 250 mg/day group,0.01
same,Ruff 2 & 7 Total Speed T Score V1 (Mean),[2]; 250 mg/day group,45.74
same,Ruff 2 & 7 Accuracy Difference Score V3 (Mean),[2]; 250 mg/day group,0.01
same,Ruff 2 & 7 Speed Difference Score V3 (Mean),[2]; 250 mg/day group,0.01
same,Ruff 2 & 7 Total Accuracy T Score V3 (Mean),[2]; 250 mg/day group,53.00
same,Ruff 2 & 7 Total Difference Score V3 (Mean),[2]; 250 mg/day group,0.02
same,Ruff 2 & 7 Total Speed T Score V3 (Mean),[2]; 250 mg/day group,54.85
same,Ruff 2 & 7 Speed Difference Score V3-V1 (Mean),[2]; [3],0.00
same,Ruff 2 & 7 Total Accuracy T Score V3-V1 (Mean),[2]; [3],5.59
same,Ruff 2 & 7 Total Difference Score V3-V1 (Mean),[2]; [3],0.00
same,Ruff 2 & 7 Total Speed T Score V3-V1 (Mean),[2]; [3],9.11
same,Ruff 2 & 7 Accuracy Difference Score V1 (Mean),[2]; 500 mg/day group,0.02
same,Ruff 2 & 7 Speed Difference Score V1 (Mean),[2]; 500 mg/day group,0.01
same,Ruff 2 & 7 Total Accuracy T Score V1 (Mean),[2]; 500 mg/day group,42.71
same,Ruff 2 & 7 Total Difference Score V1 (Mean),[2]; 500 mg/day group,0.02
same,Ruff 2 & 7 Total Speed T Score V1 (Mean),[2]; 500 mg/day group,44.33
same,Ruff 2 & 7 Accuracy Difference Score V3 (Mean),[2]; 500 mg/day group,0.00
same,Ruff 2 & 7 Speed Difference Score V3 (Mean),[2]; 500 mg/day group,0.02
same,Ruff 2 & 7 Total Accuracy T Score V3 (Mean),[2]; 500 mg/day group,49.88
same,Ruff 2 & 7 Total Difference Score V3 (Mean),[2]; 500 mg/day group,0.02
same,Ruff 2 & 7 Total Speed T Score V3 (Mean),[2]; 500 mg/day group,53.75
same,Ruff 2 & 7 Accuracy Difference Score V3-V1 (Mean),[2]; [4],-0.02
same,Ruff 2 & 7 Speed Difference Score V3-V1 (Mean),[2]; [4],0.01
same,Ruff 2 & 7 Total Accuracy T Score V3-V1 (Mean),[2]; [4],7.17
same,Ruff 2 & 7 Total Difference Score V3-V1 (Mean),[2]; [4],0.01
same,Ruff 2 & 7 Total Speed T Score V3-V1 (Mean),[2]; [4],9.42
